# Values quoted from earlier work as cited in patent US20040005347A1, “Composition comprising cocoa” (N. V. NUTRICIA, priority 2001, published 2004).
# Tests used:
# serotonin levels = settings: in vitro
# PMS related symptoms = settings: supplementation
SMILES,serotonin levels (serotonin levels),"PMS related symptoms, especially those related to mood (PMS related symptoms)"
Cn1c(=O)c2c(ncn2C)n(C)c1=O [caffeine],increase,–
[Mg+2] [Magnesium],–,improves
